Measurements taken from patent US7541383B2, “Asthma and allergic inflammation modulators” (Amgen Inc., priority 2002, dated 2009).

Molecular target: T1, human CRTH2 (Homo sapiens, UniProt Q9Y5Y4)
T1 construct: Full-length human CRTH2 cDNA was generated by polymerase chain reaction (PCR); expressed in transfected cells; host or cells: 293 cells stably transfected with pHLT124 (pCDNA3.1(+)), named 293(124)
T1 sequence (Q9Y5Y4 1-395): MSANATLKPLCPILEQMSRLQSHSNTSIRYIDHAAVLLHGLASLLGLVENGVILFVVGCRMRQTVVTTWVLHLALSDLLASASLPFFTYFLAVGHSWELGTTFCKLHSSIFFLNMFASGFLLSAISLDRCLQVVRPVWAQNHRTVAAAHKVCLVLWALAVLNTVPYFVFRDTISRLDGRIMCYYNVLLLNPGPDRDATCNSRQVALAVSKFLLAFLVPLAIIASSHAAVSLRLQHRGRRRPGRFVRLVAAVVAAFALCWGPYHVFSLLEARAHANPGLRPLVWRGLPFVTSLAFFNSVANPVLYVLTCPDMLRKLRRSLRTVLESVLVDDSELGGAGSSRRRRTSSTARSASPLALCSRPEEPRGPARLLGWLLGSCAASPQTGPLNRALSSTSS
Assay: Human CRTH2 binding assay (3H-PGD2 ligand binding, 293(124) cells)
Conditions: 3H-PGD2 binding to 293(124) cells stably expressing human CRTH2; room temperature, 2.5 h
Experimental: Full-length human CRTH2 cDNA was generated by polymerase chain reaction (PCR) using human genomic DNA as template and subsequently cloned into pCDNA3.1(+) (Invitrogen), generating a CRTH2 expression plasmid pHLT124. The plasmid was transfected into 293 cells, […], using LipofectAMINE™ reagents (Gibco/BRL). G418 ([…]) was added to the culture 48 h after transfection and cells were maintained under selection for 3 weeks to ensure that all surviving cells stably expressed CRTH2. These cells are labeled as 293(124) hereafter.
^3H-PGD2 binding assay was performed using 293(124) cells. In brief, cells were washed and suspended in RPMI containing 0.5% BSA and 20 mM HEPES. Each assay contained 25,000 cells, appropriate amount of test compound when necessary and a mixture of 1 nM ^3H-PGD2 (Anmersham Pharmacia Biotech) and 30 nM of unlabeled PGD2 (Cayman Chemicals) in […] final volume. The cell mixture was incubated at room temperature for 2.5 h with shaking and the cells were separated from free ^3H-PGD2 and transferred onto a filter plate using a cell harvester. Radioactivity bound to the cells was measured on a liquid scintillation counter. Nonspecific binding was determined in the presence of […] of unlabeled PGD2.

Structure (SMILES)	IC50
CCNC(=O)c1ccc(Oc2ccc(CCC(=O)O)cc2)c(NS(=O)(=O)c2ccccc2)c1 [Example 10, 3-[4-(2-Benzenesulfonylamino-4-ethylcarbamoyl-phenoxy)-phenyl]-propionic acid]	< 1000 nM
O=C(O)Cc1ccc(Oc2ccc(C(F)(F)F)cc2NS(=O)(=O)c2cccc3ccccc23)cc1 [Example 2, {4-[2-(Naphthalene-1-sulfonylamino)-4-trifluoromethyl-phenoxy]-phenyl}-acetic acid]	1000 to 15000 nM
COc1ccc(Oc2cccc(CC(=O)O)c2)c(NS(=O)(=O)c2ccccc2)c1 [Example 36, 3-(4-Methoxy-2-benzenesulfonylamino-phenoxy)phenylacetic acid]	1000 to 15000 nM
CCNC(=O)c1ccc(C(=O)c2cc(CC(=O)O)ccc2OC)c(NS(=O)(=O)c2ccc(C)cc2)c1 [Example 70]	< 1000 nM
CCNC(=O)c1ccc(Oc2ccc(CC(=O)O)cc2OC)c(NS(=O)(=O)c2ccc(Cl)cc2Cl)c1 [Example 12, (4-[2-(2,4-Dichloro-benzenesulfonyl-amino)-4-ethylcarbamoyl-phenoxy]-3-methoxy-phenyl)-acetic acid]	< 1000 nM
CCNC(=O)c1ccc(S(=O)(=O)c2ccc(CC(=O)O)cc2)c(NS(=O)(=O)c2ccc(Cl)cc2Cl)c1 [Example 17, {4-[2-(2,4-dichloro-benzenesulfonyl-amino)-4-ethylcarbamoyl-benzenesulfonyl]-phenyl}-acetic acid]	1000 to 15000 nM
O=C(O)Cc1cc(OCc2ccccc2)cc(C(F)(F)F)c1 [Example 5, (3-benzyloxy-5-trifluoromethyl-phenyl)-acetic acid]	1000 to 15000 nM
CCOC(=O)Cc1cccc(Oc2ccccc2[N+](=O)[O-])c1 [Example 31, Ethyl 3-(2-nitrophenoxy)phenylacetate]	> 15000 nM
CCNC(=O)c1ccc(Oc2cc(CC(=O)O)ccc2OC)c(NC(=O)OC(C)C)c1 [Example 77, [3-(4-Ethylcarbamoyl-2-isopropoxycarbonylamino-phenoxy)-4-methoxy-phenyl]-acetic acid]	1000 to 15000 nM
CCNC(=O)c1cc(NS(=O)(=O)c2ccc(Cl)cc2Cl)c2oc3c(Cl)cc(CC(=O)O)cc3c2c1 [Example 18, [4-chloro-6-(2,4-dichloro-benzenesulfonyl-amino)-8-ethylcarbamoyl-dibenzofuran-2-yl]-acetic acid]	< 1000 nM
Cc1ccc(S(=O)(=O)Nc2ccccc2Cc2ccc(CC(=O)O)cc2)cc1 [Example 64]	< 1000 nM
Cc1ccc(S(=O)(=O)Nc2cc(C(F)(F)F)ccc2Oc2ccc(CC(=O)O)cc2)cc1 [Example 1, {4-[2-(toluene-4-sulfonylamino)-4-trifluoromethyl-phenoxy]-phenyl}-acetic acid]	1000 to 15000 nM
O=C(O)Cc1ccc(Oc2ccc(C(F)(F)F)cc2NC(=O)c2ccccc2)cc1 [Example 3, [4-(2-Benzoylamino-4-trifluoromethyl-phenoxy)-phenyl]-acetic acid]	1000 to 15000 nM
O=C(O)Cc1cn(Cc2ccccc2NCc2ccccc2)c2ccccc12 [Example 63]	1000 to 15000 nM
CS(=O)(=O)Nc1cc(C(F)(F)F)ccc1Oc1ccc(CC(=O)O)cc1 [Example 4, [4-(2-Methanesulfonylamino-4-trifluoromethyl-phenoxy)-phenyl]-acetic acid]	> 15000 nM
CCNC(=O)c1ccc(Oc2ccc(Cc3nnn[nH]3)cc2OC)c(NS(=O)(=O)c2ccc(Cl)cc2Cl)c1 [Example 75, 3-(2,4-Dichloro-benzenesulfonylamino)-N-ethyl-4-[2-methoxy-4-(1H-tetrazol-5-ylmethyl)-phenoxy]-benzamide]	< 1000 nM
O=C(O)Cc1cccc(Oc2ccc(Cl)cc2NS(=O)(=O)c2ccccc2)c1 [Example 35, 3-(4-Chloro-2-benzenesulfonylamino-phenoxy)phenylacetic acid]	< 1000 nM
O=C(O)Cc1cccc(Oc2ccc(C(=O)c3ccccc3)cc2NS(=O)(=O)c2ccccc2)c1 [Example 33, 3-(4-Benzoyl-2-benzenesulfonylamino-phenoxy)phenylacetic acid]	1000 to 15000 nM
